Assay results: publication PMC7561186, “Rational design of balanced dual-targeting antibiotics with limited resistance” (PLoS Biology, 2020)
≈ marks a conversion by molar mass, not a printed value. Where two headings read alike, the source gives them in different places.

Tested on: S. aureus clinical isolates
Experiment: microbe, parasite or virus in culture
Format: cell-based
Details: Staphylococcus aureus, read-out: MIC

C[C@H]1COc2c(N3CCN(C)CC3)c(F)cc3c(=O)c(C(=O)O)cn1c23 [Levofloxacin]
MIC (MRSA, S. aureus IHMA 1621638, MRSA / VSSA): 0.25 µg/mL (≈ 0.692 µM)
MIC (MRSA, S. aureus IHMA 1622252, MRSA / VSSA): 16 µg/mL (≈ 44.3 µM)
MIC (MRSA, S. aureus IHMA 1622527, MRSA / VSSA): 0.25 µg/mL (≈ 0.692 µM)
MIC (MRSA, S. aureus IHMA 1666371, MRSA / VSSA): > 64 µg/mL
MIC (MRSA, S. aureus IHMA 1695391, MRSA / VSSA): > 64 µg/mL
MIC (MRSA, S. aureus IHMA 1703428, MRSA / VSSA): 0.25 µg/mL (≈ 0.692 µM)
MIC (MRSA, S. aureus IHMA 1720350, MRSA / VSSA): 0.25 µg/mL (≈ 0.692 µM)
MIC (MRSA, S. aureus IHMA 1732989, MRSA / VSSA): 64 µg/mL (≈ 177 µM)
MIC (MRSA, S. aureus IHMA 1742231, MRSA / VSSA): > 64 µg/mL
MIC (MRSA, S. aureus IHMA 1766357, MRSA / VSSA): 16 µg/mL (≈ 44.3 µM)
MIC (MSSA / NRS 12 / VISA, S. aureus IHMA 1308244, NRS12, MSSA / VISA): 0.5 µg/mL (≈ 1.38 µM)
MIC (MSSA / NRS 13 / VISA, S. aureus IHMA 1308245, NRS13, MSSA / VISA): 0.5 µg/mL (≈ 1.38 µM)
MIC (MSSA / NRS 14 / VISA, S. aureus IHMA 1308246, NRS14, MSSA / VISA): 0.5 µg/mL (≈ 1.38 µM)
MIC (MSSA / NRS 17 / VISA, S. aureus IHMA 1308247, NRS17, MSSA / VISA): 16 µg/mL (≈ 44.3 µM)
MIC (MSSA / NRS 28 / VISA, S. aureus IHMA 1308249, NRS28, MSSA / VISA): 32 µg/mL (≈ 88.6 µM)
MIC (MSSA / NRS 52, S. aureus IHMA 1308252, NRS52, MSSA / VSSA* (*Expected VAN intermediate, confirmed VAN susceptible twice), test date 2018-11-07): 0.25 µg/mL (≈ 0.692 µM)
MIC (MSSA / USA100 / VRSA, S. aureus IHMA 672236, VRS6, MSSA / VRSA, USA100): 32 µg/mL (≈ 88.6 µM)
MIC (MSSA, S. aureus IHMA 1563826, MSSA / VSSA): 0.25 µg/mL (≈ 0.692 µM)
MIC (MSSA, S. aureus IHMA 1565492, MSSA / VSSA): 0.25 µg/mL (≈ 0.692 µM)
MIC (MSSA, S. aureus IHMA 1569499, MSSA / VSSA): 0.25 µg/mL (≈ 0.692 µM)
MIC (MSSA, S. aureus IHMA 1569754, MSSA / VSSA): 16 µg/mL (≈ 44.3 µM)
MIC (MSSA, S. aureus IHMA 1574202, MSSA / VSSA): 0.25 µg/mL (≈ 0.692 µM)
MIC (MSSA, S. aureus IHMA 1575652, MSSA / VSSA): 0.25 µg/mL (≈ 0.692 µM)
MIC (MSSA, S. aureus IHMA 1575779, MSSA / VSSA): 0.25 µg/mL (≈ 0.692 µM)
MIC (MSSA, S. aureus IHMA 1576329, MSSA / VSSA): 0.25 µg/mL (≈ 0.692 µM)
MIC (MSSA, S. aureus IHMA 1577800, MSSA / VSSA): 0.25 µg/mL (≈ 0.692 µM)
MIC (MSSA, S. aureus IHMA 1578560, MSSA / VSSA): 0.25 µg/mL (≈ 0.692 µM)
MIC (MSSA, S. aureus IHMA 1580233, MSSA / VSSA): 0.25 µg/mL (≈ 0.692 µM)
MIC (MSSA, S. aureus IHMA 1580925, MSSA / VSSA): 0.25 µg/mL (≈ 0.692 µM)
MIC (MSSA, S. aureus IHMA 1580955, MSSA / VSSA): 0.25 µg/mL (≈ 0.692 µM)
MIC (MSSA, S. aureus IHMA 1582586, MSSA / VSSA): 0.5 µg/mL (≈ 1.38 µM)
MIC (MSSA, S. aureus IHMA 1582691, MSSA / VSSA): 0.25 µg/mL (≈ 0.692 µM)
MIC (MSSA, S. aureus IHMA 1584230, MSSA / VSSA): 0.25 µg/mL (≈ 0.692 µM)
MIC (MSSA, S. aureus IHMA 1587279, MSSA / VSSA): 0.25 µg/mL (≈ 0.692 µM)
MIC (MSSA, S. aureus IHMA 1591459, MSSA / VSSA): 16 µg/mL (≈ 44.3 µM)
MIC (MSSA, S. aureus IHMA 1592749, MSSA / VSSA): 0.25 µg/mL (≈ 0.692 µM)
MIC (MSSA, S. aureus IHMA 1592751, MSSA / VSSA): 0.25 µg/mL (≈ 0.692 µM)
MIC (MSSA, S. aureus IHMA 1594297, MSSA / VSSA): 0.25 µg/mL (≈ 0.692 µM)
MIC (MSSA, S. aureus IHMA 1597120, MSSA / VSSA): 0.25 µg/mL (≈ 0.692 µM)
MIC (MSSA, S. aureus IHMA 1597125, MSSA / VSSA): 0.25 µg/mL (≈ 0.692 µM)
MIC (MSSA, S. aureus IHMA 1599157, MSSA / VSSA): 0.25 µg/mL (≈ 0.692 µM)
MIC (MSSA, S. aureus IHMA 1599506, MSSA / VSSA): 0.25 µg/mL (≈ 0.692 µM)
MIC (MSSA, S. aureus IHMA 1602078, MSSA / VSSA): 32 µg/mL (≈ 88.6 µM)
MIC (MSSA, S. aureus IHMA 1604586, MSSA / VSSA): 0.25 µg/mL (≈ 0.692 µM)
MIC (MSSA, S. aureus IHMA 1604609, MSSA / VSSA): 0.25 µg/mL (≈ 0.692 µM)
MIC (MSSA, S. aureus IHMA 1609919, MSSA / VSSA): 0.25 µg/mL (≈ 0.692 µM)
MIC (MSSA, S. aureus IHMA 1622864, MSSA / VSSA): 0.25 µg/mL (≈ 0.692 µM)
MIC (MSSA, S. aureus IHMA 1626392, MSSA / VSSA): 0.25 µg/mL (≈ 0.692 µM)
MIC (MSSA, S. aureus IHMA 1713793, MSSA / VSSA): 0.25 µg/mL (≈ 0.692 µM)
